Laboratory results reported in patent US7550455B2, “8-(piperazin-1yl)- and 8-([1,4]diazepan-1yl)-xanthines, the preparation thereof and their use as pharmaceutical composition” (Boehringer Ingelheim International GmbH, priority 2003, dated 2009).

Experiments:
DPP-IV = target: T1, DPP-IV (Homo sapiens, UniProt P27487); assay: DPP-IV assay with Caco-2 cell extract as DPP-IV source; format: biochemical; conditions: extract of human colon carcinoma cell line Caco-2, AFC substrate 100 μM, 60 minutes, room temperature; read-out: DPP IV inhibition IC50
T1 construct: The cell extract was obtained from the cells solubilized in a buffer; endogenous in cells; host or cells: Caco-2 (human colon carcinoma), differentiated to induce DPP-IV expression; Nonidet-P40 solubilized extract
T1 sequence (P27487 whole entry): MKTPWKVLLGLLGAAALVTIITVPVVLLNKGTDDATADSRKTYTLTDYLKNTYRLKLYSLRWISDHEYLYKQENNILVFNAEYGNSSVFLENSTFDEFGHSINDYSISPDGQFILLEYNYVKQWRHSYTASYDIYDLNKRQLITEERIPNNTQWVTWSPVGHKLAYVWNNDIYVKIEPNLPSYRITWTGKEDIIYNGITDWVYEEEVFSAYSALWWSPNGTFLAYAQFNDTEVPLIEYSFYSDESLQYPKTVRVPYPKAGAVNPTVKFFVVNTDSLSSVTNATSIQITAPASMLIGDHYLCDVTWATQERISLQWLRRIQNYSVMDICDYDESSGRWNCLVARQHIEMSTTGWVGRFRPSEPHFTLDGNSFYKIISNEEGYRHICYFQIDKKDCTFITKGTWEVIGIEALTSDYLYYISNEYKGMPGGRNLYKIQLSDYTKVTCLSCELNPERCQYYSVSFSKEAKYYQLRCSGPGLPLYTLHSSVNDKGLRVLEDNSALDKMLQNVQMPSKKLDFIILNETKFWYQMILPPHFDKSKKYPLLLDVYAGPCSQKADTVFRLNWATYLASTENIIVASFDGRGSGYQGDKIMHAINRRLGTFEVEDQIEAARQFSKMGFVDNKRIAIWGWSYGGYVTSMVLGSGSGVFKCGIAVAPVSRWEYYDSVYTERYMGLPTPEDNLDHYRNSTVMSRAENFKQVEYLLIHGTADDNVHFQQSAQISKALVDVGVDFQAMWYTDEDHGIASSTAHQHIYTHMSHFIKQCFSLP
Experimental: The ability of the substances and their corresponding salts to inhibit DPP-IV activity can be shown in a test set-up in which an extract of the human colon carcinoma cell line Caco-2 is utilized as the DPP-IV source. […] The cell extract was obtained from the cells solubilized in a buffer (10 mM tris HCl, 0.15 M NaCl, 0.04 t.i.u. aprotinin, 0.5% Nonidet-P40, pH 8.0) by centrifugation at 35000 g for 30 minutes at 4° C. (for the removal of cell debris).
The DPP-IV assay was carried out as follows:
50 μl of substrate solution (AFC; AFC is amido-4-trifluoromethylcoumarin), final concentration 100 μM, were introduced into black microtitre plates. 20 μl of assay buffer (final concentrations 50 mM tris HCl pH 7.8, 50 mM NaCl, 1% DMSO) were pipetted in. The reaction was started by addition of 30 μl of solubilized Caco-2 protein (final concentration 0.14 μg of protein per well). […] The reaction was carried out at room temperature; the incubation period was 60 minutes. […] Blank values (corresponding to 0% activity) were obtained in batches without Caco-2 protein (volumes replaced by assay buffer), control values (corresponding to 100% activity) were obtained in batches without addition of substance. […]

rats = assay: Tolerability after oral administration to rats (behaviour); format: in vivo; conditions: oral administration of 10 mg/kg

IC50 (DPP-IV) [nM] | melting point [°C] | SMILES | changes in the behaviour of the animals (rats)
17 | – | CC#CCn1c(N2CCNCC2)nc2c1c(=O)n(Cc1nc(C)cc3ccccc13)c(=O)n2C [1(1), 1-[(3-Methylisoquinolin-1-yl)methyl]-3-methyl-7-(2-butyn-1-yl)-8-(piperazin-1-yl)-xanthine] | –
9 | – | CC#CCn1c(N2CCCNCC2)nc2c1c(=O)n(Cc1nc(C)cc3ccccc13)c(=O)n2C [1(2), 1-[(3-Methylisoquinolin-1-yl)methyl]-3-methyl-7-(2-butyn-1-yl)-8-([1,4]diazepan-1-yl)xanthine] | –
6 | 188 to 190 | CC#CCn1c(N2CCCNCC2)nc2c1c(=O)n(Cc1nc(C)c3ccccc3n1)c(=O)n2C [1(3), 1-[(4-Methylquinazolin-2-yl)methyl]-3-methyl-7-(2-butyn-1-yl)-8-([1,4]diazepan-1-yl)xanthine] | –
– | 223 to 225 | CC#CCn1c(N2CCCNCC2)nc2c1c(=O)n(Cc1nc3ccccc3c3ccccc13)c(=O)n2C [Example 1(5), 1-[(Phenanthridin-6-yl)methyl]-3-methyl-7-(2-butyn-1-yl)-8-([1,4]diazepan-1-yl)-xanthine] | –
– | – | CC#CCn1c(N2CCNCC2)nc2c1c(=O)n(Cc1nc(C)c3ccccc3n1)c(=O)n2C [Example 1, 1-[(4-Methylquinazolin-2-yl)methyl]-3-methyl-7-(2-butyn-1-yl)-8-(piperazin-1-yl)-xanthine] | not possible to observe any changes in the behaviour of the animals
